Reference: patent US10351586B2, “Cytidine derivative dimers and applications thereof” (CHANGZHOU FANGYUAN PHARMACEUTICAL CO., LTD, priority 2014, dated 2019)
Marks after values point to notes of the source that are not given here.

Assays:
[1] = test system: HCT-116 human colon cancer xenografts; test: Tumor growth inhibition of HCT-116 human colon cancer xenografts in nude mice; format: in vivo, Balb/c nude mice; conditions: for Relative tumor proliferation rate (T/C %) / Relative tumor volume (RTV) / Tumor growth inhibition rate (TGI %) / Tumor volume of HCT-116 human colon cancer xenografts: single IP injection (QD×1), D1 and D2 400 mg/kg, D3 350 mg/kg, D4 300 mg/kg; for Tumor volume of HCT-116 human colon cancer xenografts: Mean±SEM
Procedure: 2. Preparation of the test substance was performed by dissolving the test substance using the following solvents:
3. Animal experiments were performed. […] Animals were numbered using their tail number.
4.1 Tumor cells were human HCT-116 colon cancer cells purchased from the Institute of Cell Biology, Chinese Academy of Sciences (Beijing, China). F-12 medium (containing 10% FBS) was used to culture cells in a carbon dioxide incubator at about 37° C., saturated humidity, under 5% CO2 and 95% air. Before inoculation, cells in logarithmic growth phase were collected. After digested by 0.25% trypsin, the cells were washed with PBS once. The cells were resuspended with serum-free medium and counted. Serum-free medium were used for cell resuspension, until the cell concentration was adjusted to about 3×10^7 cell/mL.
4.2 Animal inoculation and grouping were performed.
The diameters (D) of the tumor nodules were measured three times a week with a circle sizer ruler. In addition, the following formula was applied to calculate the volume of the tumor nodules (V): V=[…](D/2)^3 generally for a spherical shape. Evaluation indexes of antitumor activity were tumor growth inhibition rate TGI (%) and relative tumor proliferation rate T/C (%).
The calculation formula of TGI was: TGI (%)=(Vcontrol−VTreatment)/Vcontrol)×100%. The relative tumor volume (RTV) was calculated by: RTV=Vt/V0, where V0 is the tumor volume at the time of group administration, and Vt is the tumor volume at the time of measurement.
The mice were weighed 3 times every week.
4.5 Data and statistical analysis were provided.

[2] = Body weight / toxicity of a single intraperitoneal injection in HCT-116 colon tumor-bearing nude mice; conditions: D3 350 mg/kg, D4 300 mg/kg; for Average rate of weight change of the animals / Average weight of the animals: single IP injection (QD×1), D1 and D2 400 mg/kg; for Average weight of the animals: Mean±SEM
[3] = D1 400 mg/kg Day 7, D2 400 mg/kg Day 9, D3 350 mg/kg Day 11, D4 300 mg/kg Day 11, single IP

SMILES: CCCCOC(=O)Nc1ccn(C2OC(COC(=O)CCC(=O)OC[C@H]3O[C@@H](n4ccc(NC(=O)OCc5ccccc5)nc4=O)C(F)(F)[C@@H]3O)C(O)C2(F)F)c(=O)n1 (stereo in doubt) [Compound D4, 1-O-(4-N-(Benzyloxycarbonyl)-gemcitabine)-4-O-(4-N-(n-Butoxycarbonyl)-gemcitabine)-succinate]
- Relative tumor proliferation rate, minimum [1, 3]: 25.94%
- Tumor inhibition rate, maximum [1, 3]: 97.32%
- Relative tumor proliferation rate (T/C %) ([1]; Day 0): 0.00%
- Relative tumor volume (RTV) ([1]; Day 0): 1.00
- Tumor growth inhibition rate (TGI %) ([1]; Day 0): 0.00%
- Tumor volume of HCT-116 human colon cancer xenografts ([1]; Day 0): 44.09 ± 5.99** mm^3
- Relative tumor proliferation rate (T/C %) ([1]; Day 1): 77.07%
- Relative tumor volume (RTV) ([1]; Day 1): 1.12 ± 0.12
- Tumor growth inhibition rate (TGI %) ([1]; Day 1): 71.17%
- Tumor volume of HCT-116 human colon cancer xenografts ([1]; Day 1): 52.03 ± 12.91** mm^3
- Relative tumor proliferation rate (T/C %) ([1]; Day 2): 66.48%
- Relative tumor volume (RTV) ([1]; Day 2): 1.12 ± 0.12
- Tumor growth inhibition rate (TGI %) ([1]; Day 2): 76.55%
- Tumor volume of HCT-116 human colon cancer xenografts ([1]; Day 2): 52.03 ± 12.91** mm^3
- Relative tumor proliferation rate (T/C %) ([1]; Day 4): 43.31%
- Relative tumor volume (RTV) ([1]; Day 4): 0.79 ± 0.11
- Tumor growth inhibition rate (TGI %) ([1]; Day 4): 87.42%
- Tumor volume of HCT-116 human colon cancer xenografts ([1]; Day 4): 37.37 ± 10.46** mm^3
- Relative tumor proliferation rate (T/C %) ([1]; Day 7): 31.86%
- Relative tumor volume (RTV) ([1]; Day 7): 0.55 ± 0.10
- Tumor growth inhibition rate (TGI %) ([1]; Day 7): 94.11%
- Tumor volume of HCT-116 human colon cancer xenografts ([1]; Day 7): 25.46 ± 8.17** mm^3
- Relative tumor proliferation rate (T/C %) ([1]; Day 9): 30.55%
- Relative tumor volume (RTV) ([1]; Day 9): 0.55 ± 0.12
- Tumor growth inhibition rate (TGI %) ([1]; Day 9): 96.19%
- Tumor volume of HCT-116 human colon cancer xenografts ([1]; Day 9): 22.50 ± 5.31** mm^3
- Relative tumor proliferation rate (T/C %) ([1]; Day 11): 25.94%
- Relative tumor volume (RTV) ([1]; Day 11): 0.69 ± 0.20
- Tumor growth inhibition rate (TGI %) ([1]; Day 11): 97.32%
- Tumor volume of HCT-116 human colon cancer xenografts ([1]; Day 11): 26.19 ± 5.79** mm^3
- Relative tumor proliferation rate (T/C %) ([1]; Day 14): 32.83%
- Relative tumor volume (RTV) ([1]; Day 14): 1.81 ± 0.54
- Tumor growth inhibition rate (TGI %) ([1]; Day 14): 95.12%
- Tumor volume of HCT-116 human colon cancer xenografts ([1]; Day 14): 70.28 ± 18.37** mm^3
- Relative tumor proliferation rate (T/C %) ([1]; Day 16): 37.96%
- Relative tumor volume (RTV) ([1]; Day 16): 3.29 ± 0.82
- Tumor growth inhibition rate (TGI %) ([1]; Day 16): 92.12%
- Tumor volume of HCT-116 human colon cancer xenografts ([1]; Day 16): 142.77 ± 49.34** mm^3
- Relative tumor proliferation rate (T/C %) ([1]; Day 18): 26.76%
- Relative tumor volume (RTV) ([1]; Day 18): 5.11 ± 1.12
- Tumor growth inhibition rate (TGI %) ([1]; Day 18): 88.56%
- Tumor volume of HCT-116 human colon cancer xenografts ([1]; Day 18): 228.58 ± 76.92** mm^3
- Relative tumor proliferation rate (T/C %) ([1]; Day 21): 37.28%
- Relative tumor volume (RTV) ([1]; Day 21): 8.73 ± 1.39
- Tumor growth inhibition rate (TGI %) ([1]; Day 21): 84.66%
- Tumor volume of HCT-116 human colon cancer xenografts ([1]; Day 21): 375.06 ± 86.27 mm^3
- Relative tumor proliferation rate (T/C %) ([1]; Day 23): 50.04%
- Relative tumor volume (RTV) ([1]; Day 23): 9.89 ± 1.30
- Tumor growth inhibition rate (TGI %) ([1]; Day 23): 82.19%
- Tumor volume of HCT-116 human colon cancer xenografts ([1]; Day 23): 420.73 ± 76.08 mm^3
- Relative tumor proliferation rate (T/C %) ([1]; Day 25): 53.68%
- Relative tumor volume (RTV) ([1]; Day 25): 11.61 ± 1.51
- Tumor growth inhibition rate (TGI %) ([1]; Day 25): 80.98%
- Tumor volume of HCT-116 human colon cancer xenografts ([1]; Day 25): 491.29 ± 83.78 mm^3
- Relative tumor proliferation rate (T/C %) ([1]; Day 28): 69.72%
- Relative tumor volume (RTV) ([1]; Day 28): 14.73 ± 2.18
- Tumor growth inhibition rate (TGI %) ([1]; Day 28): 77.39%
- Tumor volume of HCT-116 human colon cancer xenografts ([1]; Day 28): 608.08 ± 85.37 mm^3
- Relative tumor proliferation rate (T/C %) ([1]; Day 30): 76.91%
- Relative tumor volume (RTV) ([1]; Day 30): 19.08 ± 2.98
- Tumor growth inhibition rate (TGI %) ([1]; Day 30): 72.14%
- Tumor volume of HCT-116 human colon cancer xenografts ([1]; Day 30): 781.78 ± 105.33 mm^3
- Inhibition of growth of HCT-116 human colon cancer xenografts (in words) ([1]; single IP injection, 300-400 mg/kg): higher tumor inhibition rates
- Average rate of weight change of the animals ([2]; Day 0): 0.00%
- Average weight of the animals ([2]; Day 0): 20.15 ± 0.29 g
- Average rate of weight change of the animals ([2]; Day 1): −1.17 ± 1.27%
- Average weight of the animals ([2]; Day 1): 19.90 ± 0.19 g
- Average rate of weight change of the animals ([2]; Day 2): −8.18 ± 1.56 %
- Average weight of the animals ([2]; Day 2): 18.48 ± 0.2 g
- Average rate of weight change of the animals ([2]; Day 4): −5.33 ± 1.78%
- Average weight of the animals ([2]; Day 4): 19.07 ± 0.36 g
- Average rate of weight change of the animals ([2]; Day 7): −1.43 ± 1.92%
- Average weight of the animals ([2]; Day 7): 19.85 ± 0.38 g
- Average rate of weight change of the animals ([2]; Day 9): 2.91 ± 0.55 %
- Average weight of the animals ([2]; Day 9): 20.73 ± 0.29 g
- Average rate of weight change of the animals ([2]; Day 11): 4.47 ± 0.52 %
- Average weight of the animals ([2]; Day 11): 21.05 ± 0.31 g
- Average rate of weight change of the animals ([2]; Day 14): 3.72 ± 0.73 %
- Average weight of the animals ([2]; Day 14): 20.90 ± 0.34 g
- Average rate of weight change of the animals ([2]; Day 16): 6.62 ± 0.79 %
- Average weight of the animals ([2]; Day 16): 21.48 ± 0.34 g
- Average rate of weight change of the animals ([2]; Day 18): 8.99 ± 1.38 %
- Average weight of the animals ([2]; Day 18): 21.95 ± 0.27 g
- Average rate of weight change of the animals ([2]; Day 21): 7.41 ± 1.37 %
- Average weight of the animals ([2]; Day 21): 21.63 ± 0.30 g
- Average rate of weight change of the animals ([2]; Day 23): 9.37 ± 1.82 %
- Average weight of the animals ([2]; Day 23): 22.03 ± 0.43 g
- Average rate of weight change of the animals ([2]; Day 25): 10.69 ± 2.14 %
- Average weight of the animals ([2]; Day 25): 22.30 ± 0.49 g
- Average rate of weight change of the animals ([2]; Day 28): 8.62 ± 2.68%
- Average weight of the animals ([2]; Day 28): 21.88 ± 0.59 g
- Average rate of weight change of the animals ([2]; Day 30): 9.36 ± 2.21%
- Average weight of the animals ([2]; Day 30): 22.03 ± 0.53 g
- Toxicity in tumor-bearing mice (in words) ([2]; single IP injection, D2 400 mg/kg, judged from body weight versus control): no toxicity
